{"source": "patent US20040096456A1", "about": "“Method to treat hemophilia” (priority 2003, published 2004)", "key": {"[1]": {"system": "CD4^+ splenocytes", "assay": "Proliferation assay of CD4+ splenocytes from hemophilia A mice exposed to human fVIII", "assay_type": "cell-based, mouse", "details": "for proliferative response of pooled CD4^+ splenocytes: hemophilia A mice immunized by multiple subcutaneous injections of 5-10 μg recombinant human fVIII in Freund's adjuvant, four independent groups; for proliferative response, ^3H-thymidine incorporation (FIG. 2): CD4^+ splenocytes from hemophilia A mice immunized with human fVIII, representative experiment", "protocol": "Mice were treated up to 10 times intravenously with 1 μg of purified recombinant human fVIII. CD8^+ depleted spleen cells (so as to leave only CD4^+ T cells; hereafter referred to as “CD4^+ splenocytes”) were used in proliferation assays to test the response to increasing concentrations of fVIII (5-20 nM) and to pools of overlapping synthetic peptides, spanning the sequence of the individual the fVIII domains (fVIII domain pools). Also, the cytokines secreted by CD4^+ splenocytes, after challenge in vitro with fVIII, were determined. The anti-fVIII antibody was measured in the sera as well as their IgG subclass (by ELISA). The inhibitors were measured by the Bethesda assay (Kasper et al., 1975).\nEpitope Repertoire on Human fVIII Recognized be CD4^+ Cells from Hemophilia A Mice. The epitope repertoire of the CD4^+ cells sensitized to human fVIII in hemophilia A mice was examined. Mice were immunized by multiple subcutaneous injections of 5-10 μg recombinant human fVIII, emulsified in Freund's adjuvant. This ensured a stronger sensitization of the CD4^+ cells than that obtained after intravenous administration of fVIII. The use of CD4+ splenocytes from mice strongly sensitized to fVIII increases the chances of identifying a comprehensive CD4^+ repertoire, because the CD4^+ cells recognizing individual epitopes on an antigen are scarce among unselected CD4^+ splenocytes.\nFour independent groups of 2 to 4 hemophilia A mice were immunized. For each group their CD4^+ splenocytes were pooled, and tested for their proliferative response to fVIII, and to the individual synthetic peptides spanning the sequence of human fVIII. Because of the large number of peptides, all the peptides were tested only in one experiment. In two experiments, peptides spanning the A and C domains were tested. In a fourth experiment, only peptides spanning the Al domain were tested."}, "[2]": {"system": "CD4^+ blood lymphocytes", "assay": "5 day proliferation assay of CD4+ blood lymphocytes with individual A3 and C2 peptides", "assay_type": "cell-based, human", "details": "for individual A3 peptides recognized by both patients (FIG. 4): hemophilia A patients with inhibitors # 5 and # 8, peptide 2 μg", "excerpt": "Subiects. Six HIV negative severe hemophilia A patients (3 with inhibitors and 3 without), 4 acquired hemophilia patients (Table 4) and 6 healthy subjects (3 men and 3 women, 34-48 years old) were studied. The acquired hemophilia patients had not received fVIII during the period of time when we studied their CD4^+ response to the fVIII peptides. Among hemophilia A patients, patient #8 had received immune tolerance therapy with high doses of fVIII. The last high dose of fVIII administered as part of the immune tolerance therapy was given approximately 8 months before the first experiment reported here. […] Patient #9 received a prophylactic regimen of weekly injections of standard therapeutic doses of fVIII. All other patients were self treated on an as needed basis. In several hemophilic and healthy subjects we tested the response of CD4^+ blood lymphocytes to fVIII peptides on more than one occasion, at intervals that ranged from a few weeks to several months.\nPeripheral blood mononuclear cells (PBMC) were isolated from venous blood and depleted them of CD8^+ T cells (Manfredi et al., 1993), using anti-human CD8 antibody (OKT8; Ortho Diagnostic Systems, Raritan, N.J. or Ancell, Bayport, Minn.) and paramagnetic beads coated with goat anti-mouse IgG antibody (PerSeptive Biosystems, Framingham, Mass.). The CD8^+ depleted PBMC (CD4^+ blood lymphocytes) were used for 5 day proliferation assays (Manfredi et al., […]), using sextuplet wells (2×10^5 cells/well; when cell yield was low, a minimum of 1×10^5 cells/well) and the following stimulants: phytohemagglutinin (Sigma; 10 μg/mL), T cell growth factor (Lymphocult; Biotest Diagnostic Corp., Danville, NJ; final concentration of interleukin 2, 10 U/mL), recombinant human fVIII (Baxter, Glendale, Calif. or Bayer, Elkhart, Ind.; 0.5-1 units/mL; normal plasma concentration: I unit/mL), and the synthetic fVIII peptides, both individually and in pools as described above (final concentration 2 μg/mL of each peptide). Sextuplet wells cultured without any stimulus provided the basal proliferation rate of the cells. We measured cell proliferation from the incorporation of ^3H-thymidine (1 μCi per well, specific activity 6.7 Ci/mmol; Dupont-NEN, Boston, Mass.), expressed as counts per minute (cpm). When an antigen induced a statistically significant (p<0.05) increase in proliferation (assessed using a two-tailed Student's t test), we calculated the stimulation index (SI: ratio between average cpm of cultures in the presence of the antigen and average basal proliferation of the same cells). The use of SI normalizes results, and allows comparison of experiments carried out at different times, and with different subjects."}, "[3]": {"details": "healthy subject #8, second experiment"}}}
{"substance": "peptide 71-90: 20-residue synthetic peptide, residues 71-90 of the A1 domain of human fVIII (LLGPTIQAEVYDTVVITLKN; UniProt P00451 90-109, looked up, fragment)", "values": [{"measurement": "proliferative response of pooled CD4^+ splenocytes", "setting": "[1]", "result": "recognized clearly and consistently in all or most experiments"}]}
{"substance": "peptide 2131-2150: 20-residue synthetic peptide, residues 2131-2150 of the C1 domain of human fVIII (DSSGIKHNIFNPPIIARYIR; UniProt P00451 2150-2169, looked up, fragment)", "values": [{"measurement": "proliferative response, ^3H-thymidine incorporation (FIG. 2)", "setting": "[1]", "result": "recognized"}, {"measurement": "proliferative response of pooled CD4^+ splenocytes", "setting": "[1]", "result": "recognized clearly and consistently in all or most experiments"}]}
{"substance": "YDEDENQSPRSFQKKTRHYF (listed as Homo sapiens) [1681-1700]", "values": [{"measurement": "recognition by CD4^+ cells", "setting": "[2]; [3]", "result": "recognized strongly"}]}
{"substance": "LHLQGRSNAWRPQVNNPKEW (listed as Homo sapiens) [2211-2230]", "values": [{"measurement": "C2 peptides that elicited the strongest response of CD4^+ lymphocytes", "setting": "[2]; Hemophilia A without Inhibitors, Patient 9, t = 2", "result": "2211-2230"}]}
{"substance": "GMSSSPHVLRNRAQSGSVPQ (listed as Homo sapiens) [1711-1730]", "values": [{"measurement": "recognition by CD4^+ cells", "setting": "[2]; healthy subject #2", "result": "recognized"}]}
{"substance": "AEPRKNFVKPNETKTYFWKV (listed as Homo sapiens) [1801-1820]", "values": [{"measurement": "individual A3 peptides recognized by both patients (FIG. 4)", "setting": "[2]", "result": "recognized also by patient # 8"}]}
{"substance": "IAAVERLWDYGMSSSPHVLR (listed as Homo sapiens) [peptide 1701-1720]", "values": [{"measurement": "recognition by CD4^+ cells", "setting": "[2]; [3]", "result": "recognized strongly"}, {"measurement": "recognition by CD4^+ cells", "setting": "[2]; patient #2, another experiment", "result": "recognized"}, {"measurement": "recognition by CD4^+ cells", "setting": "[2]; patient #8, another experiment", "result": "recognized"}, {"measurement": "proliferative response, ^3H-thymidine incorporation (FIG. 2)", "setting": "[1]", "result": "recognized"}, {"measurement": "proliferative response of pooled CD4^+ splenocytes", "setting": "[1]", "result": "recognized clearly and consistently in all or most experiments"}]}
{"substance": "SFQKKTRHYFIAAVERLWDY (listed as Homo sapiens) [peptide 1691-1710]", "values": [{"measurement": "experiments in which the peptide (or one or more peptides of the sequence region) was recognized", "setting": "[2]; 8 experiments done with CD4^+ cells from healthy subjects", "result": "7 of the 8"}, {"measurement": "number of acquired hemophilia patients who recognized the peptide or region", "setting": "[2]; acquired hemophilia patients, not consistent between experiments of the same patient", "result": 1}, {"measurement": "recognition by CD4^+ cells", "setting": "[2]; healthy subject #2", "result": "did not recognize"}, {"measurement": "number of hemophilia A patients who strongly recognized the peptide", "setting": "[2]; hemophilia A patients with inhibitors", "result": 2}, {"measurement": "number of hemophilia A patients who strongly recognized the peptide", "setting": "[2]; hemophilia A patients without inhibitors", "result": 1}, {"measurement": "number of hemophilia A patients who strongly recognized the peptide", "setting": "[2]; hemophilia A patients, in only one of the experiments of the same patient", "result": 3}, {"measurement": "recognition by CD4^+ cells", "setting": "[2]; patient #8, one experiment", "result": "recognized"}]}
{"substance": "GLIGPLLVCHTNTLNPAHGR (listed as Homo sapiens) [1851-1870]", "values": [{"measurement": "proliferative response, ^3H-thymidine incorporation (FIG. 2)", "setting": "[1]", "result": "recognized"}]}
{"substance": "521-540: 20-residue synthetic peptide, residues 521-540 of the A2 domain of human fVIII (PTKSDPRCLTRYYSSFVNME; UniProt P00451 540-559, looked up, fragment)", "values": [{"measurement": "proliferative response, ^3H-thymidine incorporation (FIG. 2)", "setting": "[1]", "result": "recognized"}]}
{"substance": "FTPVVNSLDPPLLTRYLRIH (listed as Homo sapiens) [2291-2310]", "values": [{"measurement": "C2 peptides that elicited the strongest response of CD4^+ lymphocytes", "setting": "[2]; Healthy Subjects, Subject 9, t = 1", "result": "2291-2310"}]}
{"substance": "531-550: 20-residue synthetic peptide, residues 531-550 of the A2 domain of human fVIII (RYYSSFVNMERDLASGLIGP; UniProt P00451 550-569, looked up, fragment)", "values": [{"measurement": "proliferative response, ^3H-thymidine incorporation (FIG. 2)", "setting": "[1]", "result": "recognized"}]}
{"substance": "peptide 601-620: 20-residue synthetic peptide, residues 601-620 of the A2 domain of human fVIII (VQLEDPEFQASNIMHSINGY; UniProt P00451 620-639, looked up, fragment)", "values": [{"measurement": "proliferative response, ^3H-thymidine incorporation (FIG. 2)", "setting": "[1]", "result": "recognized"}, {"measurement": "proliferative response of pooled CD4^+ splenocytes", "setting": "[1]", "result": "recognized clearly and consistently in all or most experiments"}]}
{"substance": "2141-2160: 20-residue synthetic peptide, residues 2141-2160 of the C1 domain of human fVIII (NPPIIARYIRLHPTHYSIRS; UniProt P00451 2160-2179, looked up, fragment)", "values": [{"measurement": "proliferative response of pooled CD4^+ splenocytes", "setting": "[1]", "result": "recognized clearly and consistently in all or most experiments"}]}
{"substance": "NENIHSIHFSGHVFTVRKKE (listed as Homo sapiens) [1951-1970]", "values": [{"measurement": "individual A3 peptides recognized by both patients (FIG. 4)", "setting": "[2]", "result": "recognized also by patient # 8"}]}
{"substance": "FDCKAWAYFSDVDLEKDVHS (listed as Homo sapiens) [1831-1850]", "values": [{"measurement": "A3 peptides that elicited the strongest response of CD4^+ lymphocytes", "setting": "[2]; Acquired Hemophilia, Patient 1, t = 2", "result": "1831-1850"}, {"measurement": "recognition by CD4^+ cells", "setting": "[2]; patients #1 and #2 (acquired hemophilia), in some experiments", "result": "recognized"}]}
{"substance": "FATWSPSKARLHLQGRSNAW (listed as Homo sapiens) [peptide 2201-2220]", "values": [{"measurement": "proliferative response, ^3H-thymidine incorporation (FIG. 2)", "setting": "[1]", "result": "recognized"}, {"measurement": "proliferative response of pooled CD4^+ splenocytes", "setting": "[1]", "result": "recognized clearly and consistently in all or most experiments"}]}
{"substance": "VEMKKEDFDIYDEDENQSPR (listed as Homo sapiens) [1671-1690]", "values": [{"measurement": "recognition by CD4^+ cells", "setting": "[2]; patient #8, another experiment", "result": "recognized"}]}
{"substance": "CLIGEHLHAGMSTLFLVYSN (listed as Homo sapiens) [2001-2020]", "values": [{"measurement": "A3 peptides that elicited the strongest response of CD4^+ lymphocytes", "setting": "[2]; Hemophilia A without Inhibitors, Patient 9, t = 1", "result": "2001-2020"}]}
{"substance": "MESKAISDAQITASSYFTNM (listed as Homo sapiens) [2181-2200]", "values": [{"measurement": "C2 peptides that elicited the strongest response of CD4^+ lymphocytes", "setting": "[2]; Hemophilia A with Inhibitors, Patient 6, t = 1", "result": "2181-2200"}]}
{"substance": "DLNSCSMPLGMESKAISDAQ (listed as Homo sapiens) [peptide 2171-2190]", "values": [{"measurement": "recognition by CD4^+ cells", "setting": "[2]; patient # 8, hemophilia A with inhibitors, C2 peptides", "result": "recognized"}]}
